pEC50: −log10 of the molar value. “Also recorded” adds a separate entry of the source.
Tests used:
[1] = cited from earlier work
[2] = system: DENV2 in THP-1 human monocytes; assay: ADE infection of human monocytes (THP-1), plaque assay; format: cell-based; conditions: Dengue virus, THP-1, DENV2 + 4G2 antibody, 48 hours, read-out: EC50, suppression of viral replication under ADE condition
Protocol: The activity of celgosivir in infected human monocytes, one of the primary circulating cell types infected by dengue virus, was examined, THP-1 cells were grown in RPMI-1640 maintenance medium containing 10% fetal calf serum and 1% Penicillin-streptomycin and cultured in 37° C. incubator supplemented with 5% CO2. For ADE infection in THP-1 cells, virus (DENV2, MOI-10) was mixed with sub-neutralizing concentration of humanized 4G2 monoclonal antibody (0.05 μg/0.5 ml) and allowed to incubate on ice for 1 hr in the serum free medium, to allow immune complex formations. The immune complex was then added on to THP-1 (1×10^5) cells per well in a 24 well plate and further incubated for 2 hours at 37° C. incubator. An excess unbound immune complex was then removed by spinning cells at 1000 rpm for 5 min and then cells were supplemented with complete growth maintenance medium. For drug testing in the ADE condition, cells were mock (untreated) or celgosivir-treated for 48 hours, and finally media supernatant was collected for plaque assay analysis.

DENV2 infected BHK21 = assay: Fluorescence microscopy for NS1 in infected BHK21 cells; format: cell-based, dengue virus; conditions: 20 μM, 24 hr
Protocol: BHK21 cells were infected with DENV2 and treated with 20 μM celgosivir or saline. After 24 hr incubation, cells were stained with nuclear stain diamidino-2-phenylindole (DAPI) or with a MAb against NS1 in conjunction with a secondary antibody conjugated with Alexa-488 (green), then examined by fluorescent microscopy for the presence of NS1, a marker for viral replication.

Question: Which results are given for `CCCC(=O)O[C@H]1CN2CC[C@H](O)[C@@H]2[C@@H](O)[C@@H]1O.Cl` [Celgosivir, celgosivir]?
Answer: Cmax and AUC versus dose ([1]; humans): increase in proportion to dose; oral clearance ([1]; humans): 12 L/h; terminal half-life ([1]; humans): 18 h; conversion in humans ([1]; only castanospermine detected in plasma): rapidly convert to castanospermine; pEC50 [2]: 6.30; NS1 / viral replication by immunofluorescence (DENV2 infected BHK21): almost complete suppression of viral replication; also recorded: very low levels of NS1
